Experimental data from a melting point compilation (Tetko et al.).

melting point | SMILES
137 °C | Cc1ccncc1/C=C/C(=O)O
104 to 108 °C | c1ccc2c(c1)OCCOCCOCCOCCOc1ccccc1OCCOCCOCCOCCO2
176 to 178 °C | O=C(O)c1cccnc1Cl
161 °C | Cc1c(C)c2c(c3c1CC3=O)CC2=O
171 to 173 °C | Cc1cc(C(=O)O)c(C)n1Cc1ccncc1
79 to 83 °C | CC1=NNC(=O)CC1
232 °C | O=C1CCc2ccc(O)cc2N1
100 °C | OC12CCCCCC1c1ccccc12 (centres undefined)
177 °C | CC1=NN(CN2CCCCC2)C(=O)/C1=N\Nc1cccnc1
273 °C | COc1cc2nc(N3CCN(C(=O)C4CCCO4)CC3)nc(N)c2cc1OC (centres undefined)
52 to 54 °C | Cc1ccc(I)c([N+](=O)[O-])c1
197 to 201 °C | C=C1C(C(=O)O)C1C(=O)O (centres undefined)
149 °C | CC12CCC3=C(CC[C@]4(C)C(=O)CC[C@@H]34)[C@H]1CCC(=O)C2 (some centres undefined)
136 to 140 °C | O=C(O)C12CC3CC(CC(Cl)(C3)C1)C2
128 to 129 °C | O=C1C=C(NCCc2ccccn2)C(=O)c2ccccc21
75 to 76 °C | Nc1cccc(C2OCCCO2)c1
248 °C | CN(C)CCC=C1c2ccccc2COc2ccc(CC(=O)O)cc21
202 °C | CCOC(=O)c1ncn2c1CN(C)C(=O)c1cc(F)ccc1-2
92 to 94 °C | CC1(C)CCc2cc(S(=O)(=O)Cl)ccc2O1
156 °C | O=C(O)CSCC(=O)NC1CCSC1=O (centres undefined)
246 °C | CCCN(CCC)CCc1cccc2c1CC(=O)N2
213 to 214 °C | O=C(O)c1ccc2sccc2c1
230 °C | CCC1CC(N)(C(=O)O)CC(C)(C)N1O (centres undefined)

melting point | SMILES
179 °C | O=C(O)C=Cc1ccccc1F
230 to 232 °C | Cc1cc(C)c(C2(C)CC(C(=NNC(N)=O)c3cc4cc(Br)ccc4o3)C2)c(C)c1 (centres undefined)
81 to 85 °C | N#CC1(c2ccc(Cl)cc2Cl)CC1
140 °C | c1cnc2ncncc2n1
254 °C | Nc1ccc(S(=O)(=O)Nc2ncccn2)cc1
88.5 °C | O=c1c2ccccc2ccc2ccccc12
300 °C | O=C(O)c1ccc(-c2ccncc2)cc1
207 °C | COc1cc(C(=O)O)ccc1F
126 to 128 °C | NNC(=O)c1ccsc1
87 °C | O=C1NCCO1
220 °C | NS(=O)(=O)c1cccc(Cl)c1Cl
101 °C | ClCc1cc(Cl)cc2c1OCOC2
72 to 73 °C | Cc1ccc(S(=O)(=O)OCC2Cc3ccccc3O2)cc1 (centres undefined)
283 to 285 °C | CC12CCC(C(=CC=C3C(=O)C4(C)CCC3C4(C)C)C1=O)C2(C)C
123 °C | C1CC2CC1C1OC21 (centres undefined)
78 °C | CC(=O)CC(=O)c1ccc2ccccc2c1
86 to 91 °C | C[C@@H]1CNCCN1
189 to 192 °C | O=C(O)c1cc2ccccn2n1
138 °C | CN(C)C(=O)NC1CCCCCCC1
48 °C | O=Cc1cccc(-c2ccncc2)c1
163 °C | CC12CCC3C(CCC4CC(=O)CCC43C)C1CC(=O)C2 (centres undefined)
220 to 223 °C | O=C(O)Cc1n[nH]c(=O)c2ccccc12

More lines, now with the values behind:

SMILES | melting point
O=S(=O)(Cl)c1sc(-c2ccccc2)nc1-c1ccccc1 | 173 to 174 °C
CCCc1c(C(=O)O)cnn1-c1ccccc1 | 107 to 110 °C
c1ccc(-c2cnc(-c3cccc4ccccc34)o2)cc1 | 104 to 106 °C
O=C(CCl)c1ccc(Cl)c(Cl)c1 | 44 °C
FC(F)(F)C#CC(F)(F)F | -117 °C
O=C(CCCN1CCC(n2c(=O)[nH]c3ccccc32)CC1)c1ccc(F)cc1 | 170 °C
COc1cc(C=C2SC(=S)N(CNc3ccc([N+](=O)[O-])cc3)C2=O)ccc1O | 195 °C
COC(=O)CS | -3 °C
NC(=O)c1ccccc1OCC(=O)O | 221 °C
CCN1C(=O)CC(=O)N(CC)C1=S | 106 to 109 °C
CC(C)CCCCCO | -106 °C
Nc1ccccc1NC(C(=O)Nc1ccccc1)(c1ccccc1)c1ccccc1 | 160 °C
COc1ccc(-c2ccc(S(=O)(=O)NC(Cc3ccccc3)C(=O)O)cc2)cc1 (centres undefined) | 179 °C
O=[N+]([O-])c1ccccc1C(O)C(O)c1ccccc1 (centres undefined) | 100 °C
NS(=O)(=O)c1cc2c(cc1Cl)N=C(CSCc1ccccc1)NS2(=O)=O | 232 °C
O=C(c1ccccc1)c1ccc(Cl)c(Cl)c1 | 102 °C
CC(=O)OC1CCC2(C)C(CCC3C4CCC(=NNS(=O)(=O)c5ccc(C)cc5)C4(C)CCC32)C1 (centres undefined) | 222 °C
CC(=O)Nc1ccccc1CCNC(=O)c1ccc2ccccc2c1O | 225 to 227 °C
O=C(Cl)c1cc(-c2ccccc2)c(C(F)(F)F)s1 | 48 to 51 °C
c1ccc(C2=C(c3ccccc3)NC(c3ccncc3)N2)cc1 | 255 to 265 °C
Cn1ccc(-c2ccc(Br)cc2)n1 | 79.5 to 81 °C

SMILES | melting point
CC1CCC2(C)CCC3(C)C(=CCC4C5(C)CCC(O)C(C)(C)C5CCC43C)C2C1C (centres undefined) | 186 °C
CC(COc1ccccc1)NC(C)C(O)c1ccc(O)cc1 (centres undefined) | 102 °C
COc1ccc(C(=O)OCCOc2ccc(C=CC(=O)c3ccccc3)cc2)cc1 | 113 °C
COc1ccc(-c2csc(/C(C#N)=C\c3ccco3)n2)cc1 | 115 °C
FC(F)(F)c1ccc(N2CCNCC2)cc1 | 89 to 92 °C
CC(C)c1ccc(C=CC(=O)O)cc1 | 157 to 161 °C
Cc1cccc2ccc3ccccc3c12 | 53.5 °C
CCCCCCCCCCCC(=O)NC | 68 °C
COc1ccc2c(OC(C)=O)c(OC)c(OC)c(OC(C)=O)c2c1 | 77.5 °C
Nc1cc2c(cc1C=Cc1ccccc1)CC(c1ccccc1)N2 (centres undefined) | 163 °C
C=C(C)C1Cc2c(ccc3c2OC2COc4cc(OC)c(OC)cc4C2C3=O)O1 (centres undefined) | 176 °C
Cc1ccc(C)c(C#N)c1 | 13 to 14 °C
CC(C)(CO)[N+](=O)[O-] | 89.5 °C
CCOC(=O)c1cc(-c2cccs2)nn1C | 72 to 73 °C
CCCC(=O)CCC | -33 °C
Cn1cnc2ncnc(N)c21 | 323 °C
COc1ccc(C(N)C(N)c2ccc(OC)cc2)cc1 (centres undefined) | 148 to 152 °C
O=C(O)Cc1c(F)c(F)c(F)c(F)c1F | 109 °C
Cc1nsc(-c2ccccc2)n1 | 50 to 52 °C
O=[N+]([O-])c1ccc(CCBr)cc1 | 69 °C
O=C1NC(=S)NC(=O)C1=Cc1ccc(-c2ccc(Cl)cc2)o1 | 280 °C

SMILES | melting point
O=S(=O)(O)CCS(=O)(=O)O | 173 °C
N#Cc1sc2c(=O)c3ccccc3c(=O)c=2sc1C#N | 225 °C
O=C(O)C1Cc2ccccc2N1C(=O)OCc1ccccc1 (centres undefined) | 103 to 105 °C
CCC(C)(C)c1cc(O)c(C(C)(C)CC)cc1O | 180 °C
Cc1nc([N+](=O)[O-])c(Br)n1CCC#N | 152 to 155 °C
COc1ccc(C(O)c2ccccc2)cc1 (centres undefined) | 67 °C
O=C(O)CCc1ccccc1Cl | 95.5 °C
COc1ccc2c(c1)c(CC(=O)OCC(=O)O)c(C)n2C(=O)c1ccc(Cl)cc1 | 150 °C
FC(F)C(F)(F)CBr | < 25 °C
Cc1c2ccccc2nc2ccccc12 | 118 °C
CCC(C#N)CC#N (centres undefined) | -41 °C
NC(=O)CN(CC(=O)O)CC(=O)O | 219 °C
CCN(CC)c1ccc(N=C=S)cc1 | 32 °C
CCC(=O)Nc1c(C(=O)Cc2c(C)cc(C)cc2C)oc2ccccc12 | 147 to 148 °C
CN1CCN(Cc2ccccc2CO)CC1 | 62 to 64 °C
Cc1cccc(-n2cc[nH]c2=S)c1 | 153 to 154 °C
O=C(/C=C/c1ccccc1)Oc1ccc(/C=C/C(=O)c2ccccc2)cc1 | 158 °C
C/C(=N/NC(N)=S)C(=O)Nc1ccccc1 | 211 to 213 °C
CCCCCCC(=O)CCCCCC | 33 °C
NNC(=O)c1cc(OCC(F)(F)F)ccc1OCC(F)(F)F | 86 to 88 °C
C=C1C(=O)OC2C1CCC(C)C1(O)C=CC(=O)C21C (centres undefined) | 164 °C

SMILES | melting point
Cc1ccccc1-n1c(C)nc2ccccc2c1=O | 120 °C
O=C1NC(=S)NC(=O)C1=NNc1cccc([N+](=O)[O-])c1 | 330 °C
CCC1(CC)C(=O)NC(=S)NC1=O | 180 °C
CCCCCCCCC(N)=O | 99.5 °C
Oc1ccc(Cl)c2ccccc12 | 117 to 120 °C
C=C(CC(=O)OCC)C(=O)OCC | 58.5 °C
O=C(O)C=Cc1ccc(Br)cc1F | 219 to 223 °C
Cc1ccncc1C=NNc1ccc([N+](=O)[O-])cc1[N+](=O)[O-] | 156 °C
CCC(Cl)CC | -105 °C
Cc1cnc(Cl)c(N)c1 | 82 to 87 °C
O=C1/C(=N/Nc2cccc(C(F)(F)F)c2)C(C(F)(F)F)=NN1c1ccccc1 | 160 °C
CC(C)=CCCC(C)=CCO | 50 °C
C=CCOc1cc(O)c(C(C)=O)c(O)c1 | 145 to 146 °C
NC(=O)N=NC(N)=O | 195 to 202 °C
O=C(O)C(=S)Cc1cccc(CC(=S)C(=O)O)c1 | 85 °C
Cn1nc(CCl)c2ccccc21 | 62 to 63 °C
c1ccc2c(c1)c(Cc1cn(CN3CCCCC3)c3ccccc13)cn2CN1CCCCC1 | 138 °C
O=C(O)COc1nc(Cl)c(Cl)cc1Cl | 150 °C
O=C(O)c1ccc(N2C(=O)C3C(C(=O)c4ccc(Cl)cc4)=NN(c4ccccc4)C3C2=O)cc1 (centres undefined) | 285 °C
COc1ccc(N/N=C(/C#N)c2nc(-c3ccc(C)cc3)cs2)cc1 | 145 °C
CCCCCCCCC(O)C(O)CCCCCCCC(=O)O (centres undefined) | 90 °C
